According to article PMC4241293, “Sulfa Drugs as Inhibitors of Carbonic Anhydrase: New Targets for the Old Drugs” (BioMed Research International, 2014):

How the values were obtained:
[1] = target: bovine cytosolic carbonic anhydrase II (bCA II) (Bos taurus, UniProt P00921); experiment: In vitro carbonic anhydrase inhibition assay (p-nitrophenyl acetate hydrolysis); type: biochemical; conditions: for IC50: mean of three independent experiments ± SEM; for inhibition at 500 µM: at 0.5 mM concentration of tested compounds, mean ± SEM
Chain of bovine cytosolic carbonic anhydrase II (bCA II) (P00921 whole entry): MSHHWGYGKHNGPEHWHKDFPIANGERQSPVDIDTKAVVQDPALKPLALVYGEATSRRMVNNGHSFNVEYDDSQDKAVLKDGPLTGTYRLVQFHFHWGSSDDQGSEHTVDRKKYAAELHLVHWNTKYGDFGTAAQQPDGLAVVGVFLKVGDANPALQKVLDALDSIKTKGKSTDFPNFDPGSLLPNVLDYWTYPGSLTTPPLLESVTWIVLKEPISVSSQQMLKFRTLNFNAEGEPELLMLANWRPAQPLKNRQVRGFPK
Protocol: Carbonic anhydrase inhibition was measured by the reported method after standardization of reaction conditions such as concentration of enzyme and substrate, buffer pH, and duration of reaction. The method is based on spectrophotometric determination p-nitrophenol, the CA catalyzed hydrolysis product of p-nitrophenyl acetate. The reaction mixture consisted of 60 μL of 50 mM Tris-sulfate buffer (pH 7.6, containing 0.1 mM ZnCl2), 10 μL (0.5 mM) test compound in 1% DMSO, and 10 μL (50 U) bovine enzyme per well. […] Substrate, p-nitrophenyl acetate (6 mM stock using <5% acetonitrile in buffer), 20 μL was freshly prepared and added per well to achieve […] concentration per well. Total reaction volume was made to 100 μL.
The CA active site residues involved in direct zinc binding are His94, His96, and His119. In addition the substrate (CO2) association pocket, Thr199 loop, and the histidine proton shuttle mechanism (for regeneration of active site Zn bound hydroxide ion) are essential for CA catalytic activity and are highly conserved in all alpha class CAs. For this reason initial screening against bCA-II was carried out.

| SMILES | IC50 [1] [µM] | melting point [°C] | inhibition at 500 µM [1] [%] |
| --- | --- | --- | --- |
| Cc1ccnc(NS(=O)(=O)c2ccc(Nc3nc(Cl)nc(Cl)n3)cc2)n1 [1a, 4-[(4,6-Dichloro-1,3,5-triazin-2-yl)amino]-N-(4-methylpyrimidin-2-yl)benzenesulfonamide] | 4.14 ± 0.02 | 235 to 237 |  |
| O=S(=O)(Nc1cnc2ccccc2n1)c1ccc(Nc2nc(Cl)nc(Cl)n2)cc1 [2a, 4-[(4,6-Dichloro-1,3,5-triazin-2-yl)amino]-N-(quinoxalin-2-yl)benzenesulfonamide] | 105.3 ± 0.16 | 268 to 270 |  |
| Nc1ccc(S(=O)(=O)Nc2cnc3ccccc3n2)cc1 [2b, sulfaquinoxaline, reference compound] |  |  | 51.8 |
| O=S(=O)(Nc1ncccn1)c1ccc(Nc2nc(Cl)nc(Cl)n2)cc1 [3a, 4-[(4,6-Dichloro-1,3,5-triazin-2-yl)amino]-N-(pyrimidin-2-yl)benzenesulfonamide] | 24.9 ± 0.03 | 221 to 223 |  |
| Cc1cc(C)nc(NS(=O)(=O)c2ccc(Nc3nc(Cl)nc(Cl)n3)cc2)n1 [4a, 4-[(4,6-Dichloro-1,3,5-triazin-2-yl)amino]-N-(4,6-dimethylpyrimidin-2-yl)benzenesulfonamide] | 14.9 ± 0.02 | 327 to 329 |  |
| Cc1cc(C)nc(NS(=O)(=O)c2ccc(N)cc2)n1 [4b, sulfadimidine, reference compound] |  |  | 41.7 |
| O=S(=O)(Nc1cncc(Cl)n1)c1ccc(Nc2nc(Cl)nc(Cl)n2)cc1 [5a, N-(6-Chloropyrazin-2-yl)-4-[(4,6-dichloro-1,3,5-triazin-2-yl)amino]benzenesulfonamide] | 1.49 ± 0.006 | 236 to 238 |  |
| Nc1ccc(S(=O)(=O)Nc2cncc(Cl)n2)cc1 [5b, sulfachloropyrazine, reference compound] |  |  | 42.4 |
